Read-outs that look alike come from different tables or passages of the source.
Target: Human complement C1s enzyme (Homo sapiens (Human), UniProt P09871)
Experiment: Human C1s enzyme assay
Assay type: biochemical
Details: read-out: IC50 (Stars)
Procedure, shortened: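 Purified serum-derived human C1s (1.16 nM final) preincubated 5 min at room temperature with compound in 50 mM Tris, 1 M NaCl, pH 7.5. Z-L-Lys-SBzl thioester substrate and DTNB added (100 μM each, final); A405 read every 30 s for 30 min. IC50 from nonlinear regression of reaction rates against compound concentration.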

[1] = Human C1s enzyme assay of Example 3
[2] = Human complement C1s enzyme 1.16 nM, substrate Z-L-Lys-SBzl 100 μM, assay of Example 3
[3] = Human complement C1s enzyme 1.16 nM, substrate Z-L-Lys-SBzl, assay of Example 3

Human complement C1s enzyme, sequence (P09871 438-688 limits assumed): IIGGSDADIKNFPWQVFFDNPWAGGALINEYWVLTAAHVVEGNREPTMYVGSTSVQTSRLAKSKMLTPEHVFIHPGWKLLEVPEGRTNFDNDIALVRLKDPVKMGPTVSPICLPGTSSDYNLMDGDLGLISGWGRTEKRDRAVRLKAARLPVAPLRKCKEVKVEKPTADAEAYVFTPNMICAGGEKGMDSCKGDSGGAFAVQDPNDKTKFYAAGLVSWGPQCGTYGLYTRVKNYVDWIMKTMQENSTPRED
Human complement C1s enzyme, sequence (P09871 16-437 partner limits assumed): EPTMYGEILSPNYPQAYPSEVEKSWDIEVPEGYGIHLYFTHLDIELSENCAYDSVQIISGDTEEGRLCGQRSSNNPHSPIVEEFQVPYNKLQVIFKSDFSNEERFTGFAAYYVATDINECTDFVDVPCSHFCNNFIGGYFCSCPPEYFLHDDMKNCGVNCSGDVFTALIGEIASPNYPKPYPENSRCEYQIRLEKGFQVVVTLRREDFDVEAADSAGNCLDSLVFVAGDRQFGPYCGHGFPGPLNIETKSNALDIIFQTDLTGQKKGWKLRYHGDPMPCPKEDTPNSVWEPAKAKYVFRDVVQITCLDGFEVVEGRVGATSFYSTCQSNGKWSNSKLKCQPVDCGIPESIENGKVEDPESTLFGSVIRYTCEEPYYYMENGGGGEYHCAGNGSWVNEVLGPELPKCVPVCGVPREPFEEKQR

IC50 [1] [nM]	IC50 [2] [nM]	SMILES	also measured
< 100	–	C[C@H](O)[C@H](O)[C@@H](O)[C@@H](O)CNCC(=O)NCCOC[C@@]12C[C@@H]1N(C(=O)CNC(=O)c1ccc(Oc3ccc(F)cc3)cc1)[C@H](C(=O)N[C@H](C)c1cc(C(=N)N)cs1)C2 [Compound 84, (1S,3S,5R)—N—((R)-1-(4-carbamimidoylthiophen-2-yl)ethyl)-2-((4-(4-fluorophenoxy)benzoyl)glycyl)-5-((2-(2-(((2S,3S,4S,5S)-2,3,4,5-tetrahydroxyhexyl)amino)acetamido)ethoxy)methyl)-2-azabicyclo[3.1.0]hexane-3-carboxamide]	–
–	< 100	C[C@@H](NC(=O)[C@@H]1C[C@]2(COCCN)C[C@@H]2N1C(=O)CNC(=O)c1ccc2c(c1)-c1ccccc1C2(F)F)c1cc(C(=N)N)cs1 [Compound 313, (1S,3S,5R)-5-((2-aminoethoxy)methyl)-N—((R)-1-(4-carbamimidoylthiophen-2-yl)ethyl)-2-((9,9-difluoro-9H-fluorene-3-carbonyl)glycyl)-2-azabicyclo[3.1.0]hexane-3-carboxamide]	–
–	–	C[C@@H](NC(=O)[C@@H]1C[C@@H](c2nccs2)CN1C(=O)CNC(=O)c1ccc(Oc2ccc(F)cc2)cc1)c1cc(C(=N)N)cs1 [Compound 412, (2S,4R)—N—((R)-1-(4-carbamimidoylthiophen-2-yl)ethyl)-1-((4-(4-fluorophenoxy)benzoyl)glycyl)-4-(thiazol-2-yl)pyrrolidine-2-carboxamide]	IC50 [3]: < 100 nM
> 1000	–	O=C(NCC(=O)N1CC2(C[C@H]1C(=O)NCc1cc(-c3cc(C(F)(F)F)[nH]n3)cs1)OCCO2)c1ccc(Oc2ccc(F)cc2)cc1 [Compound 76, (S)-7-((4-(4-fluorophenoxy)benzoyl)glycyl)-N-((4-(5-(trifluoromethyl)-1H-pyrazol-3-yl)thiophen-2-yl)methyl)-1,4-dioxa-7-azaspiro[4.4]nonane-8-carboxamide]	–
< 100	–	C[C@@H](NC(=O)[C@@H]1C[C@]2(C)C[C@@H]2N1C(=O)CNC(=O)c1ccc(Oc2ccc(F)cc2)cc1)c1ccc(C(=N)N)s1 [Compound 67, (1S,3S,5S)—N—((R)-1-(5-carbamimidoylthiophen-2-yl)ethyl)-2-((4-(4-fluorophenoxy)benzoyl)glycyl)-5-methyl-2-azabicyclo[3.1.0]hexane-3-carboxamide]	–
> 1000	–	C[C@@H](NC(=O)[C@@H]1CC2(CN1C(=O)CNC(=O)c1ccc3c(c1)-c1ccccc1C3(F)F)OCCO2)c1cc(-c2cn[nH]n2)cs1 [Compound 152, (S)—N—((R)-1-(4-(2H-1,2,3-triazol-4-yl)thiophen-2-yl)ethyl)-7-((9,9-difluoro-9H-fluorene-3-carbonyl)glycyl)-1,4-dioxa-7-azaspiro[4.4]nonane-8-carboxamide]	–
–	< 100	Cc1ccc(-c2ccc(C(=O)NCC(=O)N3CC4(C[C@H]3C(=O)NCc3cc(C(=N)N)cs3)OCCO4)cc2)cc1F [Compound 210, (S)—N-((4-carbamimidoylthiophen-2-yl)methyl)-7-((3′-fluoro-4′-methyl-[1,1′-biphenyl]-4-carbonyl)glycyl)-1,4-dioxa-7-azaspiro[4.4]nonane-8-carboxamide]	–
–	< 100	C[C@@H](NC(=O)[C@@H]1CC2(CN1C(=O)CNC(=O)c1ccc3c(c1)[nH]c1ccccc13)OCCO2)c1cc(C(=N)N)cs1 [Compound 374, (S)-7-((9H-carbazole-2-carbonyl)glycyl)-N—((R)-1-(4-carbamimidoylthiophen-2-yl)ethyl)-1,4-dioxa-7-azaspiro[4.4]nonane-8-carboxamide]	–
–	–	N=C(N)c1csc([C@@H](CO)NC(=O)[C@@H]2C[C@](F)(CF)CN2C(=O)CNC(=O)c2ccc3c(c2)-c2ccccc2C3(F)F)c1 [Compound 398, (2S,4R)—N—((R)-1-(4-carbamimidoylthiophen-2-yl)-2-hydroxyethyl)-1-((9,9-difluoro-9H-fluorene-3-carbonyl)glycyl)-4-fluoro-4-(fluoromethyl)pyrrolidine-2-carboxamide]	IC50 [3]: < 100 nM
< 100	–	Cc1ccc(-c2ccc(C(=O)NCC(=O)N3CC4(C[C@H]3C(=O)N[C@H](C)c3cc(C(=N)N)cs3)OCCO4)cc2)c(C)c1 [Compound 169, (S)—N—((R)-1-(4-carbamimidoylthiophen-2-yl)ethyl)-7-((2′,4′-dimethyl-[1,1′-biphenyl]-4-carbonyl)glycyl)-1,4-dioxa-7-azaspiro[4.4]nonane-8-carboxamide]	–
–	< 100	C[C@@H](NC(=O)[C@@H]1C[C@]2(Cn3ccnn3)C[C@@H]2N1C(=O)CNC(=O)c1ccc2c(c1)-c1ccccc1C2(F)F)c1cc(C(=N)N)cs1 [Compound 274, (1S,3S,5S)-5-((1H-1,2,3-triazol-1-yl)methyl)-N—((R)-1-(4-carbamimidoylthiophen-2-yl)ethyl)-2-((9,9-difluoro-9H-fluorene-3-carbonyl)glycyl)-2-azabicyclo[3.1.0]hexane-3-carboxamide]	–
–	< 100	C[C@@H](NC(=O)[C@@H]1CC2(CN1C(=O)CNC(=O)c1ccc3cc4ccccc4nc3c1)OCCO2)c1cc(C(=N)N)cs1 [Compound 331, (S)-7-((acridine-3-carbonyl)glycyl)-N—((R)-1-(4-carbamimidoylthiophen-2-yl)ethyl)-1,4-dioxa-7-azaspiro[4.4]nonane-8-carboxamide]	–
–	> 1000	N=C(N)c1csc(CNC(=O)[C@@H]2CC3(CN2C(=O)CN2CCc4cc(-c5ccc(F)cc5)ccc4C2=O)OCCO3)c1 [Compound 255, (S)—N-((4-carbamimidoylthiophen-2-yl)methyl)-7-(2-(6-(4-fluorophenyl)-1-oxo-3,4-dihydroisoquinolin-2(1H)-yl)acetyl)-1,4-dioxa-7-azaspiro[4.4]nonane-8-carboxamide]	–
< 100	–	C[C@@H](NC(=O)[C@@H]1CC2(CN1C(=O)CNC(=O)c1ccc(Oc3ccc(F)cc3)cc1)OCCO2)c1ccc(C(=N)N)s1 [Compound 85, (S)—N—((R)-1-(5-carbamimidoylthiophen-2-yl)ethyl)-7-((4-(4-fluorophenoxy)benzoyl)glycyl)-1,4-dioxa-7-azaspiro[4.4]nonane-8-carboxamide]	–
–	< 100	C[C@@H](NC(=O)[C@@H]1C[C@@H](OC(F)F)CN1C(=O)CNC(=O)c1cccc(-c2ccc(F)cc2)c1)c1cc(C(=N)N)cs1 [Compound 330, (2S,4R)—N—((R)-1-(4-carbamimidoylthiophen-2-yl)ethyl)-4-(difluoromethoxy)-1-((4′-fluoro-[1,1′-biphenyl]-3-carbonyl)glycyl)pyrrolidine-2-carboxamide]	–
< 100	–	CCc1ccc(Oc2ccc(C(=O)NCC(=O)N3C[C@H](OC(F)F)C[C@H]3C(=O)N[C@H](C)c3cc(C(=N)N)cs3)cc2)cc1 [Compound 39, (2S,4R)—N—((R)-1-(4-carbamimidoylthiophen-2-yl)ethyl)-4-(difluoromethoxy)-1-((4-(4-ethylphenoxy)benzoyl)glycyl)pyrrolidine-2-carboxamide]	–
–	< 100	COC[C@H]1C[C@@H](C(=O)N[C@H](C)c2cc(C(=N)N)cs2)N(C(=O)CNC(=O)c2ccc3oc4ccccc4c3c2)C1 (relative stereo) [Compound 219, (2S,4S*)—N—((R)-1-(4-carbamimidoylthiophen-2-yl)ethyl)-1-((dibenzo[b,d]furan-2-carbonyl)glycyl)-4-(methoxymethyl)pyrrolidine-2-carboxamide]	–
< 100	–	N=C(N)c1csc(CNC(=O)[C@@H]2CC3(CN2C(=O)CNC(=O)c2ccc(-c4ccc(F)cc4F)cc2)OCCO3)c1 [Compound 107, (S)—N-((4-carbamimidoylthiophen-2-yl)methyl)-7-((2′,4′-difluoro-[1,1′-biphenyl]-4-carbonyl)glycyl)-1,4-dioxa-7-azaspiro[4.4]nonane-8-carboxamide]	–
–	< 100	C[C@@H](NC(=O)[C@@H]1C[C@](F)(CF)CN1C(=O)CNC(=O)c1ccc2c(c1)sc1ccccc12)c1cc(C(=N)N)cs1 [Compound 349, (2S,4R)—N—((R)-1-(4-carbamimidoylthiophen-2-yl)ethyl)-1-((dibenzo[b,d]thiophene-3-carbonyl)glycyl)-4-fluoro-4-(fluoromethyl)pyrrolidine-2-carboxamide]	–
< 100	–	COC[C@@]1(F)C[C@@H](C(=O)N[C@H](C)c2cc(C(=N)N)cs2)N(C(=O)CNC(=O)c2ccc(Oc3ccccc3)c(C)c2)C1 [Compound 34, (2S,4R)—N—((R)-1-(4-carbamimidoylthiophen-2-yl)ethyl)-4-fluoro-4-(methoxymethyl)-1-((3-methyl-4-phenoxybenzoyl)glycyl)pyrrolidine-2-carboxamide]	–
–	100 to 1000	NCC(=O)Nc1csc(CNC(=O)[C@@H]2CC3(CN2C(=O)CNC(=O)c2ccc(Oc4ccc(F)cc4)cc2)OCCO3)c1 [Compound 316, (S)-N-((4-(2-aminoacetamido)thiophen-2-yl)methyl)-7-((4-(4-fluorophenoxy)benzoyl)glycyl)-1,4-dioxa-7-azaspiro[4.4]nonane-8-carboxamide]	–
–	< 100	C[C@@H](NC(=O)[C@@H]1CC2(CN1C(=O)CN1Cc3ccc(-c4ccccc4)cc3C1=O)OCCO2)c1cc(C(=N)N)cs1 [Compound 386, (S)—N—((R)-1-(4-carbamimidoylthiophen-2-yl)ethyl)-7-(2-(1-oxo-6-phenylisoindolin-2-yl)acetyl)-1,4-dioxa-7-azaspiro[4.4]nonane-8-carboxamide]	–
–	< 100	CO[C@@H]1C[C@@H](C(=O)N[C@H](CO)c2cc(C(=N)N)cs2)N(C(=O)CNC(=O)c2ccc3c(c2)-c2ccccc2C3(C)C)C1 [Compound 395, (2S,4R)—N—((R)-1-(4-carbamimidoylthiophen-2-yl)-2-hydroxyethyl)-1-((9,9-dimethyl-9H-fluorene-3-carbonyl)glycyl)-4-methoxypyrrolidine-2-carboxamide]	–
–	> 1000	O=C(NCC(=O)N1CC2(C[C@H]1C(=O)NCc1ccn[nH]1)OCCO2)c1ccc(Oc2ccccc2)cc1 [Compound 384, (S)-N-((1H-pyrazol-5-yl)methyl)-7-((4-phenoxybenzoyl)glycyl)-1,4-dioxa-7-azaspiro[4.4]nonane-8-carboxamide]	–

Reference: patent publication US20250346585A1 (Alexion Pharmaceuticals, Inc., priority 2022, published 2025)
